Results as given in US10632206B2, “Zwitterionic polymers with therapeutic moieties” (priority 2008, dated 2020).

Key:
Test in all cases: In vitro cytotoxicity, CellTiter-Glo cell viability
Assay type in all cases: cell-based
[1] = system: ovarian (OVCAR 3) adenocarcinoma cells; settings: Homo sapiens, 72 h incubation, CPT-equivalent concentrations
Description: (§1) HPLC characterization of CPT liberation from CPT-polyMPC conjugates confirmed the importance of tailored linkers, and was informative for in vitro cell culture evaluation of conjugate toxicity against various cell lines. […] These CPT hydrolysis half-lives are, however, slower than those reported for PEGylated-SN38 conjugates, leading to an expected longer blood circulation time in vivo. […] Controls included a DMSO solution of CPT, and polyMPC itself in sterile distilled water. […] Importantly, the cytotoxicity was through the CPT only, since polyMPC by itself was non-toxic (FIG. 8).
(§2) Sodium azide, 4-(dimethylamino)pyridine (DMAP), N,N′-diisopropylethylamine (DIPEA), triethylamine (TEA), N-(3-Dimethylaminopropyl)-N′-ethylcarbodiimide hydrochloride (EDC), 2-bromopropionyl bromide, 2-bromoisobutyryl bromide, copper(I) bromide, 2,2′-bipyridine (bpy), 6-bromohexanoic acid, 2-[2-(2-chloroethoxy)ethoxy]ethanol, ethyl 2-bromoisobutyrate, 3-(trimethylsilyl)propargyl alcohol, methacyloyl chloride, mouse serum, and human plasma were purchased from Aldrich. 20(S)-camptothecin (CPT) was purchased from Acros. Chromium trioxide was purchased from Alfa Aesar. TFA was purchased from Fisher Scientific. Boc-Gly-OH was purchased from Advanced ChemTech. MPC monomer was synthesized in house. […] Cell viability was measured using CellTiter-Glo luminescent cell viability assays (Promega).
(§3) The COLO 205 and OVCAR 3 cancer cells were cultured in RPMI-1640 medium supplemented with 10% fetal bovine serum (FBS) or 20% FBS and 0.01 mg/ml bovine insulin, while MCF 7 cells were cultured in MEM medium supplemented with 10% FBS and 0.01 mg/ml bovine insulin. […] Cell viability post-treatment was measured using CellTiter-Glo luminescent cell viability assays (Promega) as per manufacturer's instructions on a FLUOstar OPTIMA plate reader (BMG LABTECH). The percentage camptothecin mediated toxicity was calculated with respect to untreated cells, and graphed to give dose response curves. IC50 values for each treatment were then calculated using the GraphPad Prism4 statistical analysis software.

[2] = system: human breast (MCF-7) adenocarcinoma cells; settings: MCF7, 72 h incubation, CPT-equivalent concentrations
Description: as §1, §2, §3

[3] = system: colon (COLO 205) adenocarcinoma cells; settings: Homo sapiens, 72 h incubation, CPT-equivalent concentrations
Description: as §1, §2, §3

CC[C@@]1(O)C(=O)OCc2c1cc1n(c2=O)Cc2cc3ccccc3nc2-1 [CPT, 20(S)-Camptothecin]
IC50 [1]: 130 nM
IC50 [2]: 290 nM
IC50 [3]: 320 nM
